What all share (assay): DTP human tumour cell line panel, 48 h
For experiment [1], the system named is PC-3 prostate.
The test system of experiment [2] is ACHN renal.
Experiment [3] has as its system HS 578T breast.
The subject of experiment [4] is HCT-15 colon.
Experiment [5] has as its system SK-MEL-5 melanoma.
Experiment [6] has as its system SNB-75 CNS.
The test system of experiment [7] is CCRF-CEM leukemia.
For experiment [8], the system named is DU-145 prostate.
Experiment [9] concerns SW-620 colon.
In experiment [10] the test system is SK-OV-3 ovarian.
In experiment [11] the test system is SK-MEL-2 melanoma.
Experiment [12] relates to 786-0 renal.
Experiment [13] relates to SF-539 CNS.

SMILES strings stand for the structures.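 All cell lines were grown in 96-well plates and treated with compound for 48 hours. TGI marks complete inhibition of growth.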

A word on the TGI: it is the concentration at which net growth stops. High values mean lower sensitivity of the cells, low ones greater sensitivity of the cells. For the compound `Cc1nc2ccc([N+](=O)[O-])cc2c(=O)n1C(=S)Nc1cccc(Cl)c1`, the TGI in experiment [1] came to 54.1 µM; in experiment [2], 48.2 µM; in [3], 72.4 µM; in experiment [4], 31 µM; in [5], 28.9 µM; in [6] it was 40.8 µM. The TGI in experiment [7] was 62.3 µM; in experiment [8], over 100 µM; in experiment [9], 53.3 µM; in experiment [10], 71.8 µM; in [11], 23.9 µM; in experiment [12], 78 µM. Also, the TGI in experiment [13] is 43.1 µM.
`COC(=O)CCCC(=O)C(=Nc1c(Cl)cccc1Cl)NNc1ccc(Cl)cc1`: the TGI in experiment [1] is over 100 µM; in experiment [2], over 100 µM; in experiment [3], over 100 µM; in [4] it was over 100 µM; in [5], over 90.9 µM; in [6] it was over 88.9 µM. In addition, the concentration for total growth inhibition (TGI) in [7] was 75.3 µM; in experiment [8], over 100 µM; in [9] it was over 100 µM; in experiment [10], over 100 µM; in [11] it was over 80.3 µM; in experiment [12], over 100 µM. The compound further gave a TGI in [13] of over 100 µM.
For the compound `CCOC(=O)C1C(=O)CC(O)(c2ccccc2)C(C(=O)OCC)C1c1ccc(OC)cc1` (stereo not given), the TGI in experiment [1] is over 96.4 µM; in [2] it was over 100 µM; in experiment [3], 53.7 µM; in experiment [4], over 100 µM; in [5], over 100 µM; in experiment [6], 11.9 µM. The TGI in experiment [7] was 79.2 µM; in [8] it was over 100 µM; in experiment [9], over 74.3 µM; in [10], 89.9 µM; in experiment [11], 77.6 µM; in experiment [12], over 59.2 µM. In [13], the TGI is 40.9 µM.
For `CCC[C@H](C)[C@H]1NC(=O)[C@@H](NC(=O)[C@@H](CC(C)C)N(C)C(=O)C2CCCN2C(=O)[C@H](C)O)[C@@H](C)OC(=O)[C@H](CC(C)C)N(C)C(=O)[C@@H]2CCCN2C(=O)[C@H](CC(C)C)NC(=O)[C@@H](C)C(=O)[C@H](C(C)C)OC(=O)C[C@@H]1O` (stereo not given in full), the TGI turned out to be 0.0169 µM in experiment [1]; 0.0689 µM in [2]; 1.04 µM in [3]; 1.44 µM in [4]; 0.00381 µM in experiment [5]; 0.0246 µM in experiment [6]. Besides, the TGI in experiment [7] is 0.141 µM; in [8] it was 0.0143 µM; in experiment [9], 0.00524 µM; in experiment [10], 0.14 µM; in experiment [11] it was 0.00468 µM; in [12], 0.0157 µM. For the same compound, the total growth inhibition concentration (TGI) in experiment [13] was 0.0102 µM.
As to `Cc1ccc(C(=O)Nc2ccc(CP(=O)(O)O)cc2)cc1NC(=O)c1cccc(NC(=O)Nc2cccc(C(=O)Nc3cc(C(=O)Nc4ccc(CP(=O)(O)O)cc4)ccc3C)c2)c1`, the TGI in experiment [1], in experiment [2], in [3], in [4], in experiment [5] and in experiment [6] was over 100 µM throughout. For the same compound, the total growth inhibition concentration (TGI) in experiment [7], in experiment [8], in experiment [9], in [10], in experiment [11] and in experiment [12] was over 100 µM throughout. Further, in experiment [13], the TGI was over 100 µM.
For the compound `CCN(CC)CCCn1c(=O)c2cccnc2n2c3c(=O)n(C)c(=O)n(C)c3nc12`, the total growth inhibition concentration (TGI) in experiment [1], in experiment [2], in experiment [3], in experiment [4], in experiment [5] and in [6] was over 100 µM throughout. Besides, the TGI in [7], in [8], in experiment [9], in experiment [10], in experiment [11] and in experiment [12] was over 100 µM throughout. In [13], this compound returned a TGI of over 100 µM.
Consider `O=c1nc2c(c(-c3cccc(Cl)c3)[nH]1)COC/C2=C\c1cccc(Cl)c1`, for which the TGI in experiment [1], in experiment [2], in experiment [3], in experiment [4], in experiment [5] and in experiment [6] was over 100 µM each time. Also, the TGI in [7], in [8], in experiment [9], in experiment [10], in [11] and in experiment [12] was over 100 µM in each case. Also, the TGI in [13] is over 100 µM.
As to `CC(=O)OCC1OC(n2c(=S)[nH]c(-c3ccccc3)c(C#N)c2=O)C(OC(C)=O)C(OC(C)=O)C1OC(C)=O` (stereo not given), the TGI in experiment [1], in experiment [2], in experiment [3], in experiment [4], in [5] and in experiment [6] was over 100 µM in each case. The total growth inhibition concentration (TGI) in [7], in experiment [8], in [9], in experiment [10], in experiment [11] and in experiment [12] was over 100 µM in each case. This compound also gave a TGI in experiment [13] of over 100 µM.
For `CN(O)C(=O)Cc1ccc(OCc2cccc(Cl)c2)cc1`, the TGI in [1], in [2], in experiment [3], in [4], in experiment [5] and in experiment [6] was over 100 µM each time. For the same compound, the TGI in experiment [7], in experiment [8], in experiment [9], in experiment [10], in experiment [11] and in experiment [12] was over 100 µM in each case. This compound also yielded a TGI in experiment [13] of over 100 µM.
As to `O=c1c2cc(I)ccc2[nH]c(=S)n1Cc1ccccc1`, the total growth inhibition concentration (TGI) in experiment [1] is over 100 µM; in experiment [2] it was over 100 µM; in [3], 58.9 µM; in experiment [4], over 100 µM; in experiment [5], over 100 µM; in experiment [6] it was 54.4 µM. Further, the TGI is 23.1 µM in experiment [7]; over 100 µM in experiment [8]; over 100 µM in experiment [9]; over 100 µM in experiment [10]; 56 µM in experiment [11]; 63 µM in experiment [12]. Besides, the TGI in [13] came out at 33.4 µM.

These data come from PubChem BioAssay (NCI).
